Source: patent publication US7323481B2, “Thiazolidinediones alone or in combination with other therapeutic agents for inhibiting or reducing tumour growth” (Hoffmann-La Roche Inc., priority 2001, dated 2008)

Key:
[1] = target: T1, PPAR gamma (Homo sapiens, UniProt P37231); assay: PPAR gamma stimulating activity (PPAR-mediated gene expression), alone and with 9-cis retinoic acid; assay type: cell-based; conditions: DMSO-treated cells = 1
T1 sequence (P37231 1-505): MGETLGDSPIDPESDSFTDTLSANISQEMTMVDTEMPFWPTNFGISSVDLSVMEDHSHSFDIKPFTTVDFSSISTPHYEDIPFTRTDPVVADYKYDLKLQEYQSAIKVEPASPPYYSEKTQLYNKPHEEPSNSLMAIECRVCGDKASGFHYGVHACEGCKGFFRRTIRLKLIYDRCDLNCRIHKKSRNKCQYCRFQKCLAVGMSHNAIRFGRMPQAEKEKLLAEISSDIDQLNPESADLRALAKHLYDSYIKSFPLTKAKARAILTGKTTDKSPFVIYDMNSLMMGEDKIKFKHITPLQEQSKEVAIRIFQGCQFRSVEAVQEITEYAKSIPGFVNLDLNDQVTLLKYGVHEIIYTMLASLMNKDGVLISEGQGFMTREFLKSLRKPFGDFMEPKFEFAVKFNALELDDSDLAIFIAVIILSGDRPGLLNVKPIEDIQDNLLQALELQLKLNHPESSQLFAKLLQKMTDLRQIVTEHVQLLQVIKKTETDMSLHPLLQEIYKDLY
Experimental: (§1) Female SCID beige mice were inoculated subcutaneously with 1×10^6 CX-1 human colon carcinoma cells. For 42 days 10 animals per group were orally treated with troglitazone, BM 13.1258 or BM 15.2054 (suspension in 0.5% methylcellulose). The development of tumor volume (measured in mm^3) was determined on day 45. Furthermore, following autopsy the lungs were histologically inspected for micrometastases. Inhibition of tumor growth and inhibition of number of pulmonal metastases were calculated as 100 minus tumor volume or number of metastases of the test group divided by that of the vehicle group expressed as a percentage. PPAR gamma stimulating activity of the compounds alone and in combination with the RXR specific agonist 9-cis retinoic acid were determined in accordance with a known method (Furnsinn, C., et al., Br. J. Pharmacol. 128 (1999) 1141-1148). The relative activation of PPAR-mediated gene expression is given as x-fold stimulation compared to DMSO-treated cells (activation=1).

[2] = tested on: human cancer cells (breast cancer, colon cancer, prostate cancer); assay: Inhibition of cell proliferation in human cancer cells; assay type: cell-based; conditions: human cancer cells of various tissue origins, e.g. breast, colon and prostate cancer
[3] = tested on: CX-1 human colon carcinoma cells; assay: CX-1 human colon carcinoma xenograft in SCID beige mice: tumor volume and pulmonal micrometastases; assay type: in vivo; conditions: for Inhibition relative to vehicle group (tumor volume): day 45; for Mean tumor volume: measured on day 45; for Effect on metastatic load: human xenograft models; for Number of metastases: lung micrometastases per group, histology after autopsy
Experimental: as §1

[4] = thiazolidinedione 10^−6 M in combination with 9-cis RA 10^−6 M
[5] = thiazolidinedione 10^−6 M, no 9-cis RA
[6] = thiazolidinedione 10^−7 M in combination with 9-cis RA 10^−6 M
[7] = thiazolidinedione 10^−7 M, no 9-cis RA

Row | SMILES | Inhibition of cell proliferation [2] | Relative activation of PPAR-mediated gene expression [1, 4] [x-fold] | Relative activation of PPAR-mediated gene expression [1, 5] [x-fold] | Relative activation of PPAR-mediated gene expression [1, 6] [x-fold] | Relative activation of PPAR-mediated gene expression [1, 7] [x-fold] | Inhibition relative to vehicle group (tumor volume) ([3]; 50 mg/kg oral for 42 days) [%] | Mean tumor volume ([3]; 50 mg/kg oral for 42 days) [mm^3] | Effect on metastatic load [3] | also measured
1 | CC1=C(/C=C/C(C)=C\C=C\C(C)=C\C(=O)O)C(C)(C)CCC1 [9-cis RA, 9-cis retinoic acid, reference compound] |  |  |  |  |  |  |  |  | Relative activation of PPAR-mediated gene expression ([1]; 9-cis RA 10^−6 M, no thiazolidinedione): 4.1 x-fold
2 | Cc1oc(-c2ccccc2)nc1CCOc1ccc(CC2SC(=O)NC2=O)c2sccc12 (stereo not drawn) [BM 13.1258, 5-{4-[2-(5-Methyl-2-phenyloxazol-4-yl) -ethoxy]-benzo[b]thiophen-7-ylmethyl}-thiazolidine-2,4-dione] | inhibit cell proliferation | 28.0 | 4.0 | 24.4 | 3.7 | 40 | 604 | reduce the metastatic load | Anti-tumor effect compared with troglitazone ([3]; SCID beige mice, Table 1): superior to that of troglitazone; Reduction of size of colon carcinoma ([3]; SCID beige mice, Table 1): effective in reducing the size of colon carcinoma
3 | Cc1oc(-c2cccs2)nc1CCOc1ccc(CC2SC(=O)NC2=O)c2sccc12 (stereo not drawn) [BM 15.2054, 5-{4-[2-(5-Methyl-2-(thien-2-yl)oxazol-4-yl)-ethoxy]-benzo[b]thiophen-7-ylmethyl}-thiazolidine-2,4-dione] | inhibit cell proliferation | 18.5 | 3.5 | 15.6 | 4.3 | 28 | 719 | reduce the metastatic load | Inhibition relative to vehicle group (number of metastases) ([3]; 10 mg/kg oral for 42 days): 34%; Inhibition relative to vehicle group (tumor volume) ([3]; 10 mg/kg oral for 42 days): 30%; Mean tumor volume ([3]; 10 mg/kg oral for 42 days): 702 mm^3; Number of metastases ([3]; 10 mg/kg oral for 42 days): 216; Inhibition relative to vehicle group (number of metastases) ([3]; 50 mg/kg oral for 42 days): 32%; Number of metastases ([3]; 50 mg/kg oral for 42 days): 223; Number of lung metastases compared to the vehicle group ([3]; Table 2): significantly (p<0.05) reduced
4 | Cc1c(C)c2c(c(C)c1O)CCC(C)(COc1ccc(CC3SC(=O)NC3=O)cc1)O2 (stereo not drawn) [Troglitazone, troglitazone, reference compound] |  |  |  |  |  |  |  |  | Inhibition relative to vehicle group (number of metastases) ([3]; 200 mg/kg oral for 42 days): −8%; Inhibition relative to vehicle group (tumor volume) ([3]; 200 mg/kg oral for 42 days): 20%; Mean tumor volume ([3]; 200 mg/kg oral for 42 days): 804 mm^3; Number of metastases ([3]; 200 mg/kg oral for 42 days): 352
